What was measured:
[1] = xn = mol fraction of the nth substance listed; conditions: 318.15 K, 101 kPa, Liquid
[2] = excess molar enthalpy (molar enthalpy of mixing); xn = mol fraction of the nth substance listed; conditions: 318.15 K, 101 kPa, Liquid

CCCCOC(=O)CC [butyl propanoate] + CCCCCCC
Conditions	excess molar enthalpy [kcal/mol]	excess molar volume [m3/mol]
[1], x1 = 0.0273	–	5.6e-08
[1], x1 = 0.0572	–	1.25e-07
[1], x1 = 0.1181	–	2.05e-07
[1], x1 = 0.1785	–	2.96e-07
[1], x1 = 0.2334	–	3.5e-07
[1], x1 = 0.2923	–	3.76e-07
[1], x1 = 0.3518	–	3.93e-07
[1], x1 = 0.4089	–	4e-07
[1], x1 = 0.4681	–	3.95e-07
[1], x1 = 0.528	–	3.75e-07
[1], x1 = 0.586	–	3.44e-07
[1], x1 = 0.6449	–	3.06e-07
[1], x1 = 0.7036	–	2.6e-07
[1], x1 = 0.7666	–	2.08e-07
[1], x1 = 0.8207	–	1.76e-07
[1], x1 = 0.8838	–	1.05e-07
[1], x1 = 0.937	–	7.2e-08
[2], x1 = 0.0476	0.0417	–
[2], x1 = 0.1067	0.0841	–
[2], x1 = 0.1732	0.121	–
[2], x1 = 0.2357	0.146	–
[2], x1 = 0.2979	0.163	–
[2], x1 = 0.3579	0.176	–
[2], x1 = 0.4131	0.183	–
[2], x1 = 0.4328	0.185	–
[2], x1 = 0.464	0.186	–
[2], x1 = 0.475	0.187	–
[2], x1 = 0.5206	0.186	–
[2], x1 = 0.5701	0.181	–
[2], x1 = 0.6256	0.171	–
[2], x1 = 0.6846	0.156	–
[2], x1 = 0.7498	0.134	–
[2], x1 = 0.8152	0.106	–
[2], x1 = 0.8835	0.0717	–
[2], x1 = 0.9449	0.0357	–

CCC(=O)OC [methyl propanoate] + CCCCCCCCC
Conditions	excess molar enthalpy [kcal/mol]	excess molar volume [m3/mol]
[1], x1 = 0.047	–	2.8e-07
[1], x1 = 0.111	–	5.7e-07
[1], x1 = 0.2022	–	9.27e-07
[1], x1 = 0.2873	–	1.164e-06
[1], x1 = 0.3671	–	1.333e-06
[1], x1 = 0.4381	–	1.406e-06
[1], x1 = 0.5037	–	1.425e-06
[1], x1 = 0.5664	–	1.423e-06
[1], x1 = 0.6242	–	1.359e-06
[1], x1 = 0.6768	–	1.278e-06
[1], x1 = 0.7271	–	1.166e-06
[1], x1 = 0.7724	–	1.037e-06
[1], x1 = 0.817	–	8.78e-07
[1], x1 = 0.856	–	7.5e-07
[1], x1 = 0.896	–	5.89e-07
[1], x1 = 0.9315	–	3.93e-07
[1], x1 = 0.9661	–	1.98e-07
[2], x1 = 0.084	0.111	–
[2], x1 = 0.1528	0.19	–
[2], x1 = 0.2279	0.261	–
[2], x1 = 0.2957	0.313	–
[2], x1 = 0.3549	0.35	–
[2], x1 = 0.4111	0.375	–
[2], x1 = 0.4611	0.391	–
[2], x1 = 0.5059	0.4	–
[2], x1 = 0.546	0.402	–
[2], x1 = 0.5832	0.399	–
[2], x1 = 0.6314	0.386	–
[2], x1 = 0.6645	0.371	–
[2], x1 = 0.7099	0.345	–
[2], x1 = 0.7579	0.311	–
[2], x1 = 0.808	0.268	–
[2], x1 = 0.8604	0.212	–
[2], x1 = 0.9122	0.148	–
[2], x1 = 0.9599	0.0769	–

CCC(=O)OC [methyl propanoate] + CCCCCCC
Conditions	excess molar enthalpy [kcal/mol]	excess molar volume [m3/mol]
[1], x1 = 0.0406	–	2.5e-07
[1], x1 = 0.0927	–	5.08e-07
[1], x1 = 0.1719	–	8.36e-07
[1], x1 = 0.248	–	1.063e-06
[1], x1 = 0.3249	–	1.222e-06
[1], x1 = 0.3904	–	1.27e-06
[1], x1 = 0.4571	–	1.288e-06
[1], x1 = 0.5214	–	1.254e-06
[1], x1 = 0.5761	–	1.192e-06
[1], x1 = 0.6333	–	1.105e-06
[1], x1 = 0.6853	–	1.008e-06
[1], x1 = 0.7372	–	9.01e-07
[1], x1 = 0.7844	–	7.75e-07
[1], x1 = 0.8305	–	6.37e-07
[1], x1 = 0.8748	–	4.85e-07
[1], x1 = 0.9184	–	3.36e-07
[1], x1 = 0.9596	–	1.83e-07
[2], x1 = 0.0703	0.0855	–
[2], x1 = 0.154	0.176	–
[2], x1 = 0.2369	0.249	–
[2], x1 = 0.3018	0.296	–
[2], x1 = 0.3693	0.331	–
[2], x1 = 0.4258	0.35	–
[2], x1 = 0.4809	0.362	–
[2], x1 = 0.5084	0.363	–
[2], x1 = 0.5258	0.363	–
[2], x1 = 0.5447	0.361	–
[2], x1 = 0.586	0.353	–
[2], x1 = 0.6301	0.34	–
[2], x1 = 0.6752	0.32	–
[2], x1 = 0.7232	0.295	–
[2], x1 = 0.7744	0.259	–
[2], x1 = 0.8241	0.215	–
[2], x1 = 0.8704	0.168	–
[2], x1 = 0.9177	0.112	–
[2], x1 = 0.9639	0.0537	–

CCCCCCCCCCCCCCC [pentadecane] + CCC(=O)OC
Conditions	excess molar enthalpy [kcal/mol]	excess molar volume [m3/mol]
[1], x2 = 0.0815	–	3.78e-07
[1], x2 = 0.1606	–	7e-07
[1], x2 = 0.2792	–	1.134e-06
[1], x2 = 0.377	–	1.401e-06
[1], x2 = 0.4695	–	1.535e-06
[1], x2 = 0.5395	–	1.586e-06
[1], x2 = 0.6103	–	1.569e-06
[1], x2 = 0.6695	–	1.514e-06
[1], x2 = 0.7187	–	1.405e-06
[1], x2 = 0.7639	–	1.277e-06
[1], x2 = 0.8034	–	1.137e-06
[1], x2 = 0.8389	–	1.001e-06
[1], x2 = 0.8718	–	8.65e-07
[1], x2 = 0.9023	–	7.29e-07
[1], x2 = 0.9297	–	5.72e-07
[1], x2 = 0.9549	–	4.07e-07
[1], x2 = 0.9781	–	2.28e-07
[2], x2 = 0.125	0.172	–
[2], x2 = 0.233	0.296	–
[2], x2 = 0.3463	0.398	–
[2], x2 = 0.435	0.457	–
[2], x2 = 0.5058	0.486	–
[2], x2 = 0.5584	0.495	–
[2], x2 = 0.6021	0.495	–
[2], x2 = 0.6368	0.487	–
[2], x2 = 0.6819	0.466	–
[2], x2 = 0.7197	0.439	–
[2], x2 = 0.7527	0.408	–
[2], x2 = 0.7913	0.367	–
[2], x2 = 0.8294	0.318	–
[2], x2 = 0.8668	0.272	–
[2], x2 = 0.9037	0.217	–
[2], x2 = 0.94	0.151	–
[2], x2 = 0.9713	0.0789	–

CCCCCCCCCCC [undecane] + CCCOC(=O)CC
Conditions	excess molar enthalpy [kcal/mol]	excess molar volume [m3/mol]
[1], x2 = 0.0413	–	1.53e-07
[1], x2 = 0.0923	–	3.2e-07
[1], x2 = 0.1761	–	5.43e-07
[1], x2 = 0.2561	–	7.24e-07
[1], x2 = 0.3307	–	8.39e-07
[1], x2 = 0.3986	–	9.06e-07
[1], x2 = 0.4638	–	9.37e-07
[1], x2 = 0.5278	–	9.47e-07
[1], x2 = 0.587	–	9.43e-07
[1], x2 = 0.6412	–	8.99e-07
[1], x2 = 0.6944	–	8.36e-07
[1], x2 = 0.744	–	7.6e-07
[1], x2 = 0.7913	–	6.62e-07
[1], x2 = 0.8364	–	5.52e-07
[1], x2 = 0.8799	–	4.45e-07
[1], x2 = 0.9196	–	2.93e-07
[1], x2 = 0.9603	–	1.75e-07
[2], x2 = 0.0636	0.0667	–
[2], x2 = 0.1368	0.127	–
[2], x2 = 0.2052	0.179	–
[2], x2 = 0.2811	0.228	–
[2], x2 = 0.355	0.26	–
[2], x2 = 0.4208	0.276	–
[2], x2 = 0.4796	0.283	–
[2], x2 = 0.5347	0.283	–
[2], x2 = 0.5876	0.276	–
[2], x2 = 0.6318	0.264	–
[2], x2 = 0.6804	0.246	–
[2], x2 = 0.7305	0.219	–
[2], x2 = 0.7842	0.188	–
[2], x2 = 0.8388	0.149	–
[2], x2 = 0.8946	0.104	–
[2], x2 = 0.9488	0.0549	–

CCCCCCCCCCCCCCCCC [heptadecane] + CCCCOC(=O)CC
Conditions	excess molar enthalpy [kcal/mol]	excess molar volume [m3/mol]
[1], x2 = 0.1135	–	3.06e-07
[1], x2 = 0.2186	–	5.48e-07
[1], x2 = 0.3079	–	7.39e-07
[1], x2 = 0.3903	–	8.52e-07
[1], x2 = 0.4652	–	8.98e-07
[1], x2 = 0.5331	–	9.21e-07
[1], x2 = 0.5915	–	9.16e-07
[1], x2 = 0.6482	–	8.91e-07
[1], x2 = 0.7001	–	8.35e-07
[1], x2 = 0.7497	–	7.85e-07
[1], x2 = 0.7938	–	6.9e-07
[1], x2 = 0.8335	–	6.09e-07
[1], x2 = 0.8704	–	5.1e-07
[1], x2 = 0.907	–	4.01e-07
[1], x2 = 0.9407	–	2.87e-07
[1], x2 = 0.9701	–	1.43e-07
[2], x2 = 0.0939	0.101	–
[2], x2 = 0.1935	0.175	–
[2], x2 = 0.2953	0.241	–
[2], x2 = 0.3647	0.278	–
[2], x2 = 0.4302	0.3	–
[2], x2 = 0.4836	0.311	–
[2], x2 = 0.5295	0.314	–
[2], x2 = 0.5642	0.313	–
[2], x2 = 0.5727	0.312	–
[2], x2 = 0.5964	0.31	–
[2], x2 = 0.6386	0.298	–
[2], x2 = 0.6808	0.284	–
[2], x2 = 0.7248	0.264	–
[2], x2 = 0.7703	0.236	–
[2], x2 = 0.8172	0.202	–
[2], x2 = 0.8639	0.164	–
[2], x2 = 0.911	0.116	–
[2], x2 = 0.9568	0.0625	–

Source: the NIST ThermoML archive (doi:10.1016/j.jct.2004.12.014)
